In patent US7091040B1, “P450/acetaminophen genetically directed enzyme prodrug therapy (GDEPT)” (Innovata PLC, priority 1999, dated 2006):

What was measured:
SK-OV-3 cells = experiment: Bystander effect on viability of SK-OV-3 cells co-cultured with H1A2 MZ cells in the presence of acetaminophen, trypan blue exclusion; assay type: cell-based, human; settings: for viability at 4000 µM: Homo sapiens
Protocol: (§1) Tumour cells or V79 MZ cells (non transfected, parental cells) were co-cultured overnight with various mixtures of H1A2 MZ cells (as indicated in the Table), washed with PBS and incubated with 4 mM acetaminophen in PBS for 6 h at 37° C. the cells were then washed once with PBS and maintained for either 24 or 48 h in culture medium appropriate to each cell type, as detailed in the Methods section. At 0, 6, 24 or 48 h the cells were washed in PBS and viability of the mixed cell population determined by trypan blue exclusion. The data shown are mean values±SEM of 4 separate determinations. Statistical significance was determined at each time point by comparing viability measurements in the mixed cell populations with both the viability determined at 0 h and in the absence of H1A2 MZ cells in the mixture 2×2 contingency tables using the 2-tailed Chi-squared test with Yate's correction. Viability was determined in a total of 1500 cells at each time point. Levels of significance are indicated as **p<0.001; ***p<0.0001;
(§2) For cell viability experiments 200,000 cells per well were plated on 12 well plates (Beckton-Dickenson, Oxford, UK), using the medium and conditions required by the tumour cell line and allowed to adhere overnight. After this the cells were washed with PBS before the addition of acetaminophen in 0.1 ml PBS (concentrations of 0.1–20 mM acetaminophen were dissolved in PBS by sonication) and then maintained at 37° C. At the appropriate time points, cells were removed from the plates by trypsinisation and collected by centrifugation. Cell viability was measured as ability to exclude trypan blue. Cells were counted at ×100 magnification using an Improved Neubauer haemocytometer; all cell counts are the mean of duplicate determinations of five fields from duplicate experiments.
(§3) V79 MZ Chinese hamster cells were maintained in Dulbecco-Vogt's modified Eagle's Medium (DMEM) supplemented with 10% foetal calf serum 9FCS), 2 mM L-glutamine, penicillin (100 U/ml and streptomycin (100 μg/ml) (all tissue culture reagents were obtained from Gibco BRL, Paisley, UK). H1A2 MZ cells, which are V79 MZ cells transfected with the human CYP1A2 gene, were also maintained in supplemented DMEM with the addition of geneticin at a concentration of 4 mg/ml. SK-OV-3 cells were grown in DMEM supplemented with 15% FCS and 2 mM L-glutamine, without the addition of antibiotics. RPMI-1640 medium with 10% FCS, 2 mM L-glutamine, penicillin (100 U/ml) and streptomycin ([…]) was required by the HCT116 cells. These cell lines were maintained at 37° C. with 100% humidity and 5% CO2. […] At confluence cells were removed from tissue culture flasks by inubation with trypsin-EDTA for 5 min, diluted 1:3–1:6 in fresh medium and seeded onto fresh flasks. The tumour cell lines were obtained from the European Collection of Cell Cultures.

MDA-MB-361 cells = experiment: Bystander effect on viability of MDA-MB-361 cells co-cultured with H1A2 MZ cells in the presence of acetaminophen, trypan blue exclusion; assay type: cell-based, human; settings: for viability at 4000 µM: Homo sapiens
Protocol: as §1, §2, §3

COS cells = experiment: Viability of COS cells transiently transfected with mouse CYP1A2 versus non-transfected COS cells, tritiated thymidine incorporation; assay type: cell-based
Protocol: FIG. 1 is a graphical representation of an acetaminophen titration showing the sensitivity of COS cells transiently transfected with a vector incorporating mouse CYP1A2 and non-transfected control COS cells. Cell viability is monitored by tritiated thymidine incorporation;
FIG. 2 is a cell viability time course of COS cells transiently transfected with mouse CYP1A2 and non-transfected control COS cells over a 24 hr period.
Acetaminophen concentration is 10 mM. Cell viability is monitored by tritiated thymidine incorporation;
COS cells are plated at 1.5×10^5 per well in 6 well tissue culture dishes the evening before transfection. […] All tissue culture reagents can be obtained from Gibco BRL, Paisley, UK.
To the LPA/DNA complex, 200 μl of serum free medium is added to each LPA/DNA sample which is then gently added to the cells over a period of 3–4 seconds. Cells are returned to a 37° C. CO2 incubator for 6 hours. […]
Transfected COS cells are either exposed to various concentrations of acetaminophen or incubated in the presence of 10 mM acetaminophen and cell viability monitored with time. ^3H-thymidine (Amersham International UK, 100 Ci/mmol, 5 μCi per assay), is added to treated and control cultures and aliquots removed and acid precipitable counts assessed by liquid scintillation using a Beckton Liquid Scintillation Counter.

## CC(=O)Nc1ccc(O)cc1 [acetaminophen]
SK-OV-3 cells; SK-OV-3, 0 h, SK-OV-3 cells + 5% H1A2 MZ cells, 4 mM acetaminophen in PBS, 0 h
  viability at 4000 µM: 98 ± 1%
SK-OV-3 cells; SK-OV-3, 0 h, SK-OV-3 cells + 10% H1A2 MZ cells, 4 mM acetaminophen in PBS, 0 h
  viability at 4000 µM: 98 ± 1%
SK-OV-3 cells; SK-OV-3, 0 h, SK-OV-3 cells + 25% H1A2 MZ cells, 4 mM acetaminophen in PBS, 0 h
  viability at 4000 µM: 97 ± 1%
SK-OV-3 cells; SK-OV-3, 0 h, SK-OV-3 cells + 50% H1A2 MZ cells, 4 mM acetaminophen in PBS, 0 h
  viability at 4000 µM: 98 ± 1%
SK-OV-3 cells; SK-OV-3, 0 h, SK-OV-3 cells, 0% H1A2 MZ cells, 4 mM acetaminophen in PBS, 0 h
  viability at 4000 µM: 97 ± 1%
SK-OV-3 cells; SK-OV-3, 6 h, SK-OV-3 cells + 5% H1A2 MZ cells, 4 mM acetaminophen in PBS, 6 h
  viability at 4000 µM: 55 ± 2%
SK-OV-3 cells; SK-OV-3, 6 h, SK-OV-3 cells + 10% H1A2 MZ cells, 4 mM acetaminophen in PBS, 6 h
  viability at 4000 µM: 43 ± 7%
SK-OV-3 cells; SK-OV-3, 6 h, SK-OV-3 cells + 25% H1A2 MZ cells, 4 mM acetaminophen in PBS, 6 h
  viability at 4000 µM: 22 ± 11%
SK-OV-3 cells; SK-OV-3, 6 h, SK-OV-3 cells + 50% H1A2 MZ cells, 4 mM acetaminophen in PBS, 6 h
  viability at 4000 µM: 16 ± 9%
SK-OV-3 cells; SK-OV-3, 6 h, SK-OV-3 cells, 0% H1A2 MZ cells, 4 mM acetaminophen in PBS, 6 h
  viability at 4000 µM: 98 ± 2%
SK-OV-3 cells; SK-OV-3, SK-OV-3 cells + 5% H1A2 MZ cells, 4 mM acetaminophen 6 h, then 24 h in culture medium
  viability at 4000 µM: 0%
SK-OV-3 cells; SK-OV-3, SK-OV-3 cells + 10% H1A2 MZ cells, 4 mM acetaminophen 6 h, then 24 h in culture medium
  viability at 4000 µM: 0%
SK-OV-3 cells; SK-OV-3, SK-OV-3 cells + 25% H1A2 MZ cells, 4 mM acetaminophen 6 h, then 24 h in culture medium
  viability at 4000 µM: 0%
SK-OV-3 cells; SK-OV-3, SK-OV-3 cells + 50% H1A2 MZ cells, 4 mM acetaminophen 6 h, then 24 h in culture medium
  viability at 4000 µM: 0%
SK-OV-3 cells; SK-OV-3, SK-OV-3 cells, 0% H1A2 MZ cells, 4 mM acetaminophen 6 h, then 24 h in culture medium
  viability at 4000 µM: 96 ± 3%
SK-OV-3 cells; SK-OV-3 cells + 5% H1A2 MZ cells, 4 mM acetaminophen 6 h, then 24 h in culture medium
  Viability (%): zero
SK-OV-3 cells; SK-OV-3 cells mixed with H1A2 MZ cells, 4 mM acetaminophen, 6 h
  susceptibility to cytotoxicity produced by the activation of acetaminophen: highly sensitive
MDA-MB-361 cells; MDA-MB-361, 0 h, MDA-MB-361 cells + 5% H1A2 MZ cells, 4 mM acetaminophen in PBS, 0 h
  viability at 4000 µM: 98 ± 2%
MDA-MB-361 cells; MDA-MB-361, 0 h, MDA-MB-361 cells, 0% H1A2 MZ cells, 4 mM acetaminophen in PBS, 0 h
  viability at 4000 µM: 96 ± 1%
MDA-MB-361 cells; MDA-MB-361, 6 h, MDA-MB-361 cells + 5% H1A2 MZ cells, 4 mM acetaminophen in PBS, 6 h
  viability at 4000 µM: 85 ± 2%
MDA-MB-361 cells; MDA-MB-361, 6 h, MDA-MB-361 cells, 0% H1A2 MZ cells, 4 mM acetaminophen in PBS, 6 h
  viability at 4000 µM: 98 ± 4%
MDA-MB-361 cells; MDA-MB-361, MDA-MB-361 cells + 50% H1A2 MZ cells, 4 mM acetaminophen 6 h, then 24 h in culture medium
  viability at 4000 µM: 18%
MDA-MB-361 cells; MDA-MB-361, MDA-MB-361 cells, 0% H1A2 MZ cells, 4 mM acetaminophen 6 h, then 24 h in culture medium
  viability at 4000 µM: 95 ± 3%
MDA-MB-361 cells; MDA-MB-361, MDA-MB-361 cells, 0% H1A2 MZ cells, 4 mM acetaminophen 6 h, then 48 h in culture medium
  viability at 4000 µM: 97 ± 1%
MDA-MB-361 cells; MDA-MB-361 cells + 50% H1A2 MZ cells, 4 mM acetaminophen 6 h, then 48 h in culture medium
  Viability (%): no viable cells
MDA-MB-361 cells; MDA-MB-361 cells mixed with H1A2 MZ cells, 4 mM acetaminophen, 6 h
  susceptibility to cytotoxicity produced by the activation of acetaminophen: highly resistant to cytotoxicity
COS cells; 10 mM acetaminophen, transfected COS cells versus non-transfected control cells over 24 hrs
  extent of acetaminophen sensitivity over time (tritiated thymidine incorporation): increases markedly during the first 4–8 hrs
COS cells; acetaminophen titration, COS cells transfected with CYP1A2 (48 hrs expression) versus non-transfected control COS cells
  sensitivity to acetaminophen (tritiated thymidine incorporation): significant increase in sensitivity
